As usually defined, the inhibition is how much of the control response was suppressed. Lower therefore signals a response near the control.

Values joined by “and” are separate entries in the source; they are usually repeats but may differ in a detail not shown here. Equal entries are not always repeated.

Assay [1] addresses T1, GABA-A receptor; anion channel (Homo sapiens) (UniProt P14867+P47870+P18507+P28472+P48169+Q99928+Q9UN88+P34903+O00591+O14764+Q8N1C3+P18505+P78334+P47869+P31644+Q16445). Description: Inhibition of GABAA receptor (unknown origin) at 50 uM relative to control. The class given is protein-complex assay.
Assay [2] addresses T1, GABA-A receptor; anion channel (Homo sapiens). Description: Inhibition of GABAA receptor (unknown origin) at 10 uM relative to control. The class given is protein-complex assay.

Take `Cc1cc(Cl)cc2c1N(CC(F)(F)F)C(=S)CN=C2c1ccccc1F`: the inhibition was 35% and 31% in assay [1]; 53% in assay [1] (INHIBITOR); 24% and 17% and 26% in assay [2].

These data come from ChEMBL document CHEMBL5584247, “Stereochemical properties of quazepam and its affinity for the GABAA receptor” (Bioorg Med Chem Lett, 2024).
